According to PMC8041306 (Journal of Medicinal Chemistry, 2021):

## O=C(NCc1ccc(F)cc1)N1CCN2C(=O)OC(C3CCCCC3)(C3CCCCC3)C2C1 (stereo not shown)
  melting point: 94 to 95 °C

## CCCC1(CCC)OC(=O)N2CCN(C(=O)NCc3ccc(F)cc3)CC21 (stereo not shown)
  melting point: 74 to 77 °C

## N=C(NCc1ccccc1)N1CCN2C(=O)OC(c3ccccc3)(c3ccccc3)C2C1 (stereo not shown)
  melting point: 68 to 69 °C

## C[C@H]1CN(C(=O)NCc2ccc(F)cc2)C[C@H]2N1C(=O)OC2(c1ccccc1)c1ccccc1
  melting point: 153 to 156 °C

## O=C(NCc1ccc(F)cc1)N1CCN2C(=O)OC(c3ccc(F)cc3)(c3ccc(F)cc3)C2C1 (stereo not shown)
  melting point: 104 to 107 °C

## O=C(NCc1ccc(F)cc1)N1CCN2C(=O)OC(c3ccc(Cl)cc3)(c3ccc(Cl)cc3)C2C1 (stereo not shown)
  melting point: 77 to 79 °C

## Cc1ccc(C2(c3ccc(C)cc3)OC(=O)N3CCN(C(=O)NCc4ccc(F)cc4)CC32)cc1 (stereo not shown)
  melting point: 89 to 90 °C

## CN(C)c1ccc(C2(c3ccc(N(C)C)cc3)OC(=O)N3CCN(C(=O)NCc4ccc(F)cc4)CC32)cc1 (stereo not shown)
  melting point: 110 to 113 °C

## Cc1ccccc1C1(c2ccccc2C)OC(=O)N2CCN(C(=O)NCc3ccc(F)cc3)CC21 (stereo not shown)
  melting point: 217 to 219 °C

## COc1ccccc1C1(c2ccccc2OC)OC(=O)N2CCN(C(=O)NCc3ccc(F)cc3)CC21 (stereo not shown)
  melting point: 172 to 173 °C

## O=C(NCc1ccc(F)cc1)N1CCN2C(=O)OC3(c4ccccc4-c4ccccc43)C2C1 (stereo not shown)
  melting point: 120 to 123 °C

## N=C(NCc1ccc(F)cc1)N1CCN2C(=O)OC(c3ccccc3)(c3ccccc3)C2C1 (stereo not shown) [Compound 16, N-(4-Fluorobenzyl)-3-oxo-1,1-diphenyltetrahydro-1H-oxazolo[3,4-a]pyrazine-7(3H)-carboximidamide]
  melting point: 82 to 85 °C

## O=C(NCc1ccc(F)cc1)N1C[C@H](c2ccccc2)N2C(=O)OC(c3ccccc3)(c3ccccc3)[C@H]2C1 [Compound 21, (5S,8aR)-N-(4-Fluorobenzyl)-3-oxo-1,1,5-triphenyltetrahydro-1H-oxazolo[3,4-a]pyrazine-7(3H)-carboxamide]
  melting point: 105 to 107 °C
